Earlier results on 4 molecules are cited in patent publication US20260015582A1, “METHODS OF T CELL DIFFERENTIATION AND COMPOSITIONS THEREOF” (THE CHILDREN'S MEDICAL CENTER CORPORATION, priority 2022, published 2026).

Series [1] relates to G9a/GLP. The settings on record: SAM-competitive manner.
In series [2] the test system is Lys20-specific PRSET7.
The subject of series [3] is Lys27-specific EZH2.
In series [4] the target is T1, Lys4-specific SET7/9 (Homo sapiens, UniProt Q8WTS6).
T1 sequence (Q8WTS6 1-366): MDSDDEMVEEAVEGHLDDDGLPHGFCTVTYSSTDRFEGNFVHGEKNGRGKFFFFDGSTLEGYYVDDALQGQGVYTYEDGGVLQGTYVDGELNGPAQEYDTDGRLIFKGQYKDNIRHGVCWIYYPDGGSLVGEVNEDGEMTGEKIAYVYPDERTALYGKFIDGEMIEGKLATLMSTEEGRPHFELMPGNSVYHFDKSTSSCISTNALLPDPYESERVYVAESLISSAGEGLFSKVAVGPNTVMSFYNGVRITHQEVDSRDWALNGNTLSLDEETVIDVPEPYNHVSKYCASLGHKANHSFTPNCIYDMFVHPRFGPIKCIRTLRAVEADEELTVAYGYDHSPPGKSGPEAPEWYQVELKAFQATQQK

In series [5] the target is T2, DIM5 (Neurospora crassa, UniProt Q8X225).
T2 sequence (Q8X225 1-331): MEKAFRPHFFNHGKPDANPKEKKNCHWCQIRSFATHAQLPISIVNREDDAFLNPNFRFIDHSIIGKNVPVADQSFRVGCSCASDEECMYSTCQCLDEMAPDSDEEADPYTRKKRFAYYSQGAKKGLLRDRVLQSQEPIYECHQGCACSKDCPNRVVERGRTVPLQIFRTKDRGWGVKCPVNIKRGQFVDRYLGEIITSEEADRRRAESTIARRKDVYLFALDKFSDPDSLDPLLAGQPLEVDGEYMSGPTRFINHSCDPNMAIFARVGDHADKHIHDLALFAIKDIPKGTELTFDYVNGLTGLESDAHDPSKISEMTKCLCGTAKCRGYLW

Series [6] addresses HMT SU(VAR)3-9 (Drosophila melanogaster, UniProt P45975).
Series [7] relates to G9a.
For series [8], the target named is T3, class III isoenzyme SIRT1 (Homo sapiens, UniProt Q96EB6).
T3 sequence (Q96EB6 1-747): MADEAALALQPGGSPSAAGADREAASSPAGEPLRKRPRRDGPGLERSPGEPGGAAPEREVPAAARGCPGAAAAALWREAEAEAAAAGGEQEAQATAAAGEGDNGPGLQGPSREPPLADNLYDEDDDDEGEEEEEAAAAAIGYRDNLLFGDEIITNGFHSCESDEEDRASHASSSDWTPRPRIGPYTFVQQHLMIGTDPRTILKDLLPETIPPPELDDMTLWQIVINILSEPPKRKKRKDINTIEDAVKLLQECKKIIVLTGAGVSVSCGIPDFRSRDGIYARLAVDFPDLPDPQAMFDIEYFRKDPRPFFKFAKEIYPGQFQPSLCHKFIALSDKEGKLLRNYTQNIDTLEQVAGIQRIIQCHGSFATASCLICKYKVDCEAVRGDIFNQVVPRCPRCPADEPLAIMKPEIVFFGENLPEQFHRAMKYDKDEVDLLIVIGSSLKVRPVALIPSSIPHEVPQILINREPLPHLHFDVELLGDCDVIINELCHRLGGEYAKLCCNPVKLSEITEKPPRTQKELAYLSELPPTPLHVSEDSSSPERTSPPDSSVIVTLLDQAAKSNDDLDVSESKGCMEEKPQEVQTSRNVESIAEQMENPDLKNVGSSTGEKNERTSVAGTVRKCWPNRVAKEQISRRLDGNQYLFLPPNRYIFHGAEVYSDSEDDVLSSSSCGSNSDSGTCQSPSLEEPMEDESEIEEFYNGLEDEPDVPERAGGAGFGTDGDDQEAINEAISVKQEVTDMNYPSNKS

In series [9] the target is T4, JMJD2E (Homo sapiens, UniProt B2RXH2).
T4 sequence (B2RXH2 1-506): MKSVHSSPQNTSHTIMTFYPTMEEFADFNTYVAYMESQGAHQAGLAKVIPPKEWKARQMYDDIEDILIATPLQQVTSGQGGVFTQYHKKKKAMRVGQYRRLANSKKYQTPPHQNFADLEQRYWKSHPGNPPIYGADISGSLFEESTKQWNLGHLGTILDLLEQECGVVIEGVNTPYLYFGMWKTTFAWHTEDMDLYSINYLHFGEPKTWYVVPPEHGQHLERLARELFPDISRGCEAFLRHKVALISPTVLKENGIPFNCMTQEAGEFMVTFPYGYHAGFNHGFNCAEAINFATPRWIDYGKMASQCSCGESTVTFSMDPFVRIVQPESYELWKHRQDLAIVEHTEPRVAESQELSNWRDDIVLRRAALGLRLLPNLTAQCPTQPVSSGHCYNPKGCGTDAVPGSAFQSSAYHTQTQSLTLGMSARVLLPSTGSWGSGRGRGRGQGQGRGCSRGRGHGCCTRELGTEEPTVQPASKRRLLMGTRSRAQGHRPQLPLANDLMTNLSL
The note with it: ECSD enzymatic assays.

pIC50: −log10 of the molar value.

Sequence of HMT SU(VAR)3-9 (P45975 with tags, fused parts or gaps): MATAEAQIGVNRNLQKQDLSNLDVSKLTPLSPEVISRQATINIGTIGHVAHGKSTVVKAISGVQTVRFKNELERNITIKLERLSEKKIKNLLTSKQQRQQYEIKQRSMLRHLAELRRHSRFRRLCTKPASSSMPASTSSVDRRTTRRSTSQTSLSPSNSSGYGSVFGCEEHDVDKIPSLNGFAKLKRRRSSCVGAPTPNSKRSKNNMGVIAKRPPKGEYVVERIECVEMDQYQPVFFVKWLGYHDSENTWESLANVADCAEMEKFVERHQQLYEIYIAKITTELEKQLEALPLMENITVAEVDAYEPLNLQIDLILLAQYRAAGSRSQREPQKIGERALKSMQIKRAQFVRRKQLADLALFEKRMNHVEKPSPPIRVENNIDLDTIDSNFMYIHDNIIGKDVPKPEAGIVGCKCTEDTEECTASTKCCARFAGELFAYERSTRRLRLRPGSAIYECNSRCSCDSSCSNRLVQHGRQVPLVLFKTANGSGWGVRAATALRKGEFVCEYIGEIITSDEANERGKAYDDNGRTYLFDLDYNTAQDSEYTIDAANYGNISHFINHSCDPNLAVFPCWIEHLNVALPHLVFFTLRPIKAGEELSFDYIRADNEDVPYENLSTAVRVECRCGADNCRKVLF

Regarding `COc1ccc(C(=O)Oc2ccc(CCn3c(NC(=O)c4ccc(C(F)(F)F)cc4)nc4cc(C(=O)O)ccc43)cc2)cc1` [BIX-01338], the G9a/GLP effective conc. entry in series [1] is on record as “G9a/GLP effective conc. = 15 μM”.

For `CN1C(=O)C23CC4([C@]56C[C@@]78SS[C@@](CO)(C(=O)N7[C@H]5Nc5ccccc56)N(C)C8=O)c5ccccc5NC4N2C(=O)[C@]1(CO)SS3` (stereo partly shown) [Chaetocin], the negative logarithm of the IC50 (pIC50) (usually the negative decadic logarithm of the IC50, by convention in mol/L) in series [2] is less than 4.05; in series [3], less than 4.05; in [4], less than 4.05; in [5], 5.52; in [6], 6.10; in [7], 5.60.

Regarding `CCCCc1nc2cc(/C=C/C(=O)NO)ccc2n1CCN(CC)CC` [SB939, Pracinostat], in [8], the “activity against the class III isoenzyme SIRT1” value is given as “no activity”.

For `COc1cc2c(NC3CCN(C)CC3)nc(N3CCCN(C)CC3)nc2cc1OCCOCCN(C)C` [UNC0321], the “selectivity over JMJD2E” value in [9] is on record as greater than 1000 fold. In series [9] (inactive), the pIC50 was less than 4.40.
